In patent US11312712B2, “Azabenzimidazoles and their use as AMPA receptor modulators” (Janssen Pharmaceutica NV, priority 2015, dated 2022):
pIC50: −log10 of the molar value.

What follows are molecules tested against GluA1o-γ8 (GRIA1o-CACNG8 fusion construct) (Homo sapiens (Human), UniProt P42261+Q8WXS5) (assay: Calcium flux assay (FLIPR), inhibition of TARP γ8 dependent AMPA receptor activity). Conditions: GluA1o-γ8 (GRIA1o-CACNG8 fusion) in HEK293 cells, calcium flux after 15 μM glutamate.
Assay type: cell-based
Summary of the method: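 HEK293 cells stably expressing a 1:1 GRIA1o–CACNG8 fusion were loaded with Calcium-5/6 dye plus compound in pH 7.4 HEPES-buffered saline. FLIPR calcium flux after 15 μM glutamate was normalized to untreated and 10 μM CP465022 controls, and a four-parameter logistic fit gave pIC50.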

Sequence of GluA1o-γ8 (GRIA1o-CACNG8 fusion construct) (P42261 other isoform, or with tags, fused parts or gaps): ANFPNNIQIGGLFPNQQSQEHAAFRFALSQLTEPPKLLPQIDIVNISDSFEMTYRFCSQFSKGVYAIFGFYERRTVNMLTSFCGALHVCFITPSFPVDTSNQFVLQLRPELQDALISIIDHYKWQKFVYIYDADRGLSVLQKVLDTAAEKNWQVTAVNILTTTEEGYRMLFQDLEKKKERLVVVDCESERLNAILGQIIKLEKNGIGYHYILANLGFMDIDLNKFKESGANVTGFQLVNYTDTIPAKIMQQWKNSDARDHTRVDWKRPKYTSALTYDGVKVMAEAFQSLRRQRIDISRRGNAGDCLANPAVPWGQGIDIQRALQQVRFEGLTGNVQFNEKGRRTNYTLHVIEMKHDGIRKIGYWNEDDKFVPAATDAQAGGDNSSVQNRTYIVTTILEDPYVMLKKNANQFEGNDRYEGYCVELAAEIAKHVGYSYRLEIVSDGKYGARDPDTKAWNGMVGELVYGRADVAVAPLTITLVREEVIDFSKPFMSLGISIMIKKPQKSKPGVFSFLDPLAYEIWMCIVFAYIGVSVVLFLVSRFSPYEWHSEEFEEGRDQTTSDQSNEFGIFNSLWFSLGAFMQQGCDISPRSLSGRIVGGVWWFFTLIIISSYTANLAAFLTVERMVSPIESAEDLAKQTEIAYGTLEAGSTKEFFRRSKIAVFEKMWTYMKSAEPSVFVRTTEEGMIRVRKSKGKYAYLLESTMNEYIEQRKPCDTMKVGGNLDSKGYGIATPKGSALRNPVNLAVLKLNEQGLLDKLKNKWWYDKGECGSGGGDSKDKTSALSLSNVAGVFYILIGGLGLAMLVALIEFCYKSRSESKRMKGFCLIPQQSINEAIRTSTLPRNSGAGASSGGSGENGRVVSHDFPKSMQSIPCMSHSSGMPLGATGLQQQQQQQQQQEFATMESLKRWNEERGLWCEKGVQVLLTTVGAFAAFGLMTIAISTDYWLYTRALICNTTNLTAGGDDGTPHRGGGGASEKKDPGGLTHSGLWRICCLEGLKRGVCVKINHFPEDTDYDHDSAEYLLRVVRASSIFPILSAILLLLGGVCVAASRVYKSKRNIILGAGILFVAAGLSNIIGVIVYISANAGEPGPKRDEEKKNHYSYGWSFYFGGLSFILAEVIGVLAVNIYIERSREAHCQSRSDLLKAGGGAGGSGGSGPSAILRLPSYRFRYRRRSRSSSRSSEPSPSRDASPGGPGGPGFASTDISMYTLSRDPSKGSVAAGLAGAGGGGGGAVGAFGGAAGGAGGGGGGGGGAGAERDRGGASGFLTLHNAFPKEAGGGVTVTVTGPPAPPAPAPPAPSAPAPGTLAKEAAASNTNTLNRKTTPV

pIC50 | SMILES
6.80 | FC(F)(F)c1ccc2nc(NC3CCCCC3)n(-c3ccc4[nH]ncc4c3)c2n1 [Example 131, N-Cyclohexyl-3-(1H-indazol-5-yl)-5-(trifluoromethyl)imidazo[4,5-b]pyridin-2-amine]
10.20 | O=c1[nH]c2ccc(-n3c(C4CCC4)nc4ccc(C(F)(F)F)nc43)cc2s1 [Example 132, 6-[2-Cyclobutyl-5-(trifluoromethyl)imidazo[4,5-b]pyridin-3-yl]-3H-1,3-benzothiazol-2-one]
9.00 | Cc1cc(N2CCOCC2)c2nc(C3CCC3)n(-c3ccc4[nH]c(=O)sc4c3)c2n1 [Example 133, 6-(2-Cyclobutyl-5-methyl-7-morpholino-imidazo[4,5-b]pyridin-3-yl)-3H-1,3-benzothiazol-2-one]
10.10 | O=c1[nH]c2ccc(-n3c(C(F)(F)F)nc4ccc(C(F)(F)F)nc43)cc2s1 [Example 134, 6-[2,5-Bis(trifluoromethyl)imidazo[4,5-b]pyridin-3-yl]-3H-1,3-benzothiazol-2-one]
7.10 | Cc1ccnc2c1nc(C1CC1)n2-c1ccc2[nH]c(=O)sc2c1 [Example 135, 6-(2-Cyclopropyl-7-methyl-imidazo[4,5-b]pyridin-3-yl)-3H-1,3-benzothiazol-2-one]
8.30 | Cc1cc(N2CCOCC2)c2nc(C3CC3)n(-c3ccc4[nH]c(=O)sc4c3)c2n1 [Example 136, 6-(2-Cyclopropyl-5-methyl-7-morpholino-imidazo[4,5-b]pyridin-3-yl)-3H-1,3-benzothiazol-2-one]
9.30 | Cc1cc(Cl)nc2c1nc(C1CCC1)n2-c1ccc2[nH]ncc2c1 [Example 137, 5-Chloro-2-cyclobutyl-3-(1H-indazol-5-yl)-7-methyl-imidazo[4,5-b]pyridine]
10.70 | FC(F)(F)c1ccc2nc(C3CCC3)n(-c3cc(Br)c4[nH]ncc4c3)c2n1 [Example 138, 3-(7-Bromo-1H-indazol-5-yl)-2-cyclobutyl-5-(trifluoromethyl)imidazo[4,5-b]pyridine]
7.40 | Cc1ccc2nc(C(F)(F)F)n(-c3ccc4c(c3)CC(=O)N4)c2n1 [Example 139, 5-[5-Methyl-2-(trifluoromethyl)imidazo[4,5-b]pyridin-3-yl]indolin-2-one]
8.60 | O=C1Cc2cc(-n3c(C4CC4)nc4ccc(C(F)F)nc43)ccc2N1 [Example 140, 5-[2-Cyclopropyl-5-(difluoromethyl)imidazo[4,5-b]pyridin-3-yl]indolin-2-one]
8.90 | CC(C)c1nc2ccc(C(F)F)nc2n1-c1ccc2c(c1)CC(=O)N2 [Example 141, 5-[5-(Difluoromethyl)-2-isopropyl-imidazo[4,5-b]pyridin-3-yl]indolin-2-one]
8.80 | Cc1ccc2nc(C(F)(F)F)n(-c3ccc4[nH]c(=O)sc4c3)c2n1 [Example 142, 6-[5-Methyl-2-(trifluoromethyl)imidazo[4,5-b]pyridin-3-yl]-3H-1,3-benzothiazol-2-one]
9.00 | Cc1ccc2nc(C3CC3)n(-c3ccc4[nH]c(=O)sc4c3)c2n1 [Example 143, 6-(2-Cyclopropyl-5-methyl-imidazo[4,5-b]pyridin-3-yl)-3H-1,3-benzothiazol-2-one]
8.80 | Cc1ccc2nc(C(C)C)n(-c3ccc4[nH]c(=O)sc4c3)c2n1 [Example 144, 6-(2-Isopropyl-5-methyl-imidazo[4,5-b]pyridin-3-yl)-3H-1,3-benzothiazol-2-one]
9.60 | Cc1ccc2nc(C3CCC3)n(-c3ccc4[nH]c(=O)sc4c3)c2n1 [Example 145, 6-(2-Cyclobutyl-5-methyl-imidazo[4,5-b]pyridin-3-yl)-3H-1,3-benzothiazol-2-one]
7.40 | Cc1ccc2nc(C(C)(F)F)n(-c3ccc4c(c3)CC(=O)N4)c2n1 [Example 146, 5-[2-(1,1-Difluoroethyl)-5-methyl-imidazo[4,5-b]pyridin-3-yl]indolin-2-one]
8.00 | Cc1ccc2nc(C3CC3)n(-c3ccc4[nH]ncc4c3)c2n1 [Example 147, 2-Cyclopropyl-3-(1H-indazol-5-yl)-5-methyl-imidazo[4,5-b]pyridine]
8.10 | Cc1ccc2nc(C(C)C)n(-c3ccc4[nH]ncc4c3)c2n1 [Example 148, 3-(1H-Indazol-5-yl)-2-isopropyl-5-methyl-imidazo[4,5-b]pyridine]
9.10 | Cc1ccc2nc(C3CCC3)n(-c3ccc4[nH]ncc4c3)c2n1 [Example 149, 2-Cyclobutyl-3-(1H-indazol-5-yl)-5-methyl-imidazo[4,5-b]pyridine]
8.80 | Cc1ccc2nc(C(C)(F)F)n(-c3ccc4[nH]c(=O)sc4c3)c2n1 [Example 150, 6-[2-(1,1-Difluoroethyl)-5-methyl-imidazo[4,5-b]pyridin-3-yl]-3H-1,3-benzothiazol-2-one]
7.90 | Cc1ccc2nc(C(F)(F)F)n(-c3ccc4[nH]ncc4c3)c2n1 [Example 151, 3-(1H-Indazol-5-yl)-5-methyl-2-(trifluoromethyl)imidazo[4,5-b]pyridine]

pIC50 | SMILES
7.40 | Cc1ccc2nc(C(C)(F)F)n(-c3ccc4[nH]ncc4c3)c2n1 [Example 152, 2-(1,1-Difluoroethyl)-3-(1H-indazol-5-yl)-5-methyl-imidazo[4,5-b]pyridine]
8.60 | O=C1Cc2cc(-n3c(C(F)(F)F)nc4ccc(C(F)F)nc43)ccc2N1 [Example 153, 5-[5-(Difluoromethyl)-2-(trifluoromethyl)imidazo[4,5-b]pyridin-3-yl]indolin-2-one]
8.30 | CC(F)(F)c1nc2ccc(C(F)F)nc2n1-c1ccc2c(c1)CC(=O)N2 [Example 154, 5-[2-(1-Difluoroethyl)-5-(difluoromethyl)imidazo[4,5-b]pyridin-3-yl]indolin-2-one]
7.40 | CSc1ccc2nc(-c3ccc(F)cc3)n(-c3ccc4[nH]ccc4c3)c2n1 [Example 155, 2-(4-Fluorophenyl)-3-(1H-indol-5-yl)-5-methylsulfanyl-imidazo[4,5-b]pyridine]
7.60 | Oc1ccc2nc(-c3ccccc3)n(-c3ccc4[nH]ncc4c3)c2n1 [Example 156, 3-(1H-Indazol-5-yl)-2-phenyl-imidazo[4,5-b]pyridin-5-ol]
7.90 | COc1ccc2nc(C3CC3)n(-c3ccc4[nH]ncc4c3)c2n1 [Example 157, 2-Cyclopropyl-3-(1H-indazol-5-yl)-5-methoxy-imidazo[4,5-b]pyridine]
7.50 | CCc1nc2ccc(C(F)(F)F)nc2n1-c1ccc2[nH]c(=O)oc2c1 [Example 158, 6-[2-Ethyl-5-(trifluoromethyl)imidazo[4,5-b]pyridin-3-yl]-3H-1,3-benzoxazol-2-one]
7.80 | CC(C)c1nc2ccc(C(F)(F)F)nc2n1-c1ccc2[nH]c(=O)oc2c1 [Example 159, 6-[2-Isopropyl-5-(trifluoromethyl)imidazo[4,5-b]pyridin-3-yl]-3H-1,3-benzoxazol-2-one]
6.00 | O=c1[nH]c2ccc(-n3c(C4CCOCC4)nc4ccc(C(F)(F)F)nc43)cc2o1 [Example 160, 6-[2-Tetrahydropyran-4-yl-5-(trifluoromethyl)imidazo[4,5-b]pyridin-3-yl]-3H-1,3-benzoxazol-2-one]
6.20 | CCOCc1nc2ccc(C(F)(F)F)nc2n1-c1ccc2[nH]c(=O)oc2c1 [Example 162, 6-[2-(Ethoxymethyl)-5-(trifluoromethyl)imidazo[4,5-b]pyridin-3-yl]-3H-1,3-benzoxazol-2-one]
6.80 | CC(C)(C)c1nc2ccc(C(F)(F)F)nc2n1-c1ccc2[nH]c(=O)oc2c1 [Example 163, 6-[2-tert-Butyl-5-(trifluoromethyl)imidazo[4,5-b]pyridin-3-yl]-3H-1,3-benzoxazol-2-one]
8.90 | O=C1Cc2cc(-n3c(-c4ccnc(F)c4)nc4ccc(C(F)(F)F)nc43)ccc2N1 [Example 164, 5-[2-(2-Fluoro-4-pyridyl)-5-(trifluoromethyl)imidazo[4,5-b]pyridin-3-yl]indolin-2-one]
8.80 | Fc1cc(-c2nc3ccc(C(F)(F)F)nc3n2-c2ccc3[nH]ncc3c2)ccn1 [Example 165, 2-(2-Fluoro-4-pyridyl)-3-(1H-indazol-5-yl)-5-(trifluoromethyl)imidazo[4,5-b]pyridine]
8.00 | O=C1Cc2cc(-n3c(C4CC(F)C4)nc4ccc(C(F)(F)F)nc43)ccc2N1 (centres unmarked) [Example 166, 5-[2-(3-Fluorocyclobutyl)-5-(trifluoromethyl)imidazo[4,5-b]pyridin-3-yl]indolin-2-one]
8.70 | CC[C@@H](C)c1nc2ccc(C(F)(F)F)nc2n1-c1ccc2[nH]ncc2c1 [Example 167, (R)-3-(1H-Indazol-5-yl)-2-sec-butyl-5-(trifluoromethyl)imidazo[4,5-b]pyridine]
8.20 | CC[C@H](C)c1nc2ccc(C(F)(F)F)nc2n1-c1ccc2[nH]ncc2c1 [Example 168, (S)-3-(1H-Indazol-5-yl)-2-sec-butyl-5-(trifluoromethyl)imidazo[4,5-b]pyridine]
8.50 | Fc1ccc(-c2nc3ccc(C(F)(F)F)nc3n2-c2ccc3[nH]ncc3c2)nc1 [Example 169, 2-(5-Fluoro-2-pyridyl)-3-(1H-indazol-5-yl)-5-(trifluoromethyl)imidazo[4,5-b]pyridine]
9.20 | CC(C)c1ccc2nc(C(F)(F)F)n(-c3ccc4[nH]ncc4c3)c2n1 [Example 170, 3-(1H-Indazol-5-yl)-5-isopropyl-2-(trifluoromethyl)imidazo[4,5-b]pyridine]
8.50 | CC(C)(C)c1ccc2nc(C(F)(F)F)n(-c3ccc4[nH]ncc4c3)c2n1 [Example 171, 5-tert-Butyl-3-(1H-indazol-5-yl)-2-(trifluoromethyl)imidazo[4,5-b]pyridine]
5.40 | CC(C)NC(=O)c1nc2ccc(C(F)(F)F)nc2n1-c1ccc2[nH]ncc2c1 [Example 172, 3-(1H-Indazol-5-yl)-N-isopropyl-5-(trifluoromethyl)imidazo[4,5-b]pyridine-2-carboxamide]
